# Reference: PubChem BioAssay AID1963842 (Molecular Pharmacology Branch, DTP, NCI, 2024)
# Test system: 677734-321-R-J1-PDC complex spheroid viability
# Experiment: Anticancer human tumor 677734-321-R-J1-PDC patient-derived soft tissue sarcoma cell line growth inhibition [POLQ]
# Settings: for IC50: curve of first compound; for viability, T/C: stronger effect = lower value
# Procedure, shortened: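 Three-cell-type spheroids modelling solid tumor plus stroma served as the readout system; POL inhibitors were tested individually and in combination, concentration ranges set by clinical Cmax where known.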
# [1] = second compound 0.0316 µM, first compound 0.0316 µM
# [2] = second compound 0.0316 µM, first compound 0.1 µM
# [3] = second compound 0.0316 µM, first compound 0.316 µM
# [4] = second compound 0.0316 µM, first compound 1 µM
# [5] = second compound 0.0316 µM, first compound 3.16 µM
# [6] = second compound 0.0316 µM, first compound 10 µM
# [7] = second compound 0.1 µM, first compound 0.0316 µM
# [8] = second compound 0.1 µM, first compound 0.1 µM
# [9] = second compound 0.1 µM, first compound 0.316 µM
# [10] = second compound 0.1 µM, first compound 1 µM
# [11] = second compound 0.1 µM, first compound 3.16 µM
# [12] = second compound 0.1 µM, first compound 10 µM
# [13] = second compound 0.316 µM, first compound 0.0316 µM
# [14] = second compound 0.316 µM, first compound 0.1 µM
# [15] = second compound 0.316 µM, first compound 0.316 µM
# [16] = second compound 0.316 µM, first compound 1 µM
# [17] = second compound 0.316 µM, first compound 3.16 µM
# [18] = second compound 0.316 µM, first compound 10 µM
# [19] = second compound 1 µM, first compound 0.0316 µM
# [20] = second compound 1 µM, first compound 0.1 µM
# [21] = second compound 1 µM, first compound 0.316 µM
# [22] = second compound 1 µM, first compound 1 µM
# [23] = second compound 1 µM, first compound 3.16 µM
# [24] = second compound 1 µM, first compound 10 µM
# [25] = second compound 3.16 µM, first compound 0.0316 µM
# [26] = second compound 3.16 µM, first compound 0.1 µM
# [27] = second compound 3.16 µM, first compound 0.316 µM
# [28] = second compound 3.16 µM, first compound 1 µM
# [29] = second compound 3.16 µM, first compound 3.16 µM
# [30] = second compound 3.16 µM, first compound 10 µM
# [31] = second compound 10 µM, first compound 0.0316 µM
# [32] = second compound 10 µM, first compound 0.1 µM
# [33] = second compound 10 µM, first compound 0.316 µM
# [34] = second compound 10 µM, first compound 1 µM
# [35] = second compound 10 µM, first compound 3.16 µM
# [36] = second compound 10 µM, first compound 10 µM
# 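Further: spheroids exposed to compounds for one week.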
# 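Wherever viability, T/C is given: 100% = vehicle DMSO treated spheroids.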
smiles,measurement,setting,value
CCCS(=O)(=O)Nc1ccc(F)c(C(=O)c2c[nH]c3ncc(-c4ccc(Cl)cc4)cc23)c1F + Nc1ccc(C#CCN(C(=O)Cc2ncc(C(F)(F)F)cc2C(F)(F)F)c2ccc(F)cc2)nn1,IC50,second compound 0.0316 µM,5.07 µM
same,IC50,second compound 0.1 µM,5.35 µM
same,IC50,second compound 0.316 µM,5.46 µM
same,IC50,second compound 1 µM,4.5 µM
same,IC50,second compound 3.16 µM,4.29 µM
same,IC50,second compound 10 µM,4.7 µM
same,"viability, T/C",[1],96.6%
same,"viability, T/C",[2],106%
same,"viability, T/C",[3],97.2%
same,"viability, T/C",[4],104%
same,"viability, T/C",[5],80%
same,"viability, T/C",[6],7%
same,"viability, T/C",[7],107%
same,"viability, T/C",[8],109%
same,"viability, T/C",[9],87.5%
same,"viability, T/C",[10],98.9%
same,"viability, T/C",[11],86.8%
same,"viability, T/C",[12],6.32%
same,"viability, T/C",[13],99%
same,"viability, T/C",[14],101%
same,"viability, T/C",[15],102%
same,"viability, T/C",[16],108%
same,"viability, T/C",[17],87.9%
same,"viability, T/C",[18],7.94%
same,"viability, T/C",[19],107%
same,"viability, T/C",[20],103%
same,"viability, T/C",[21],107%
same,"viability, T/C",[22],98.6%
same,"viability, T/C",[23],68%
same,"viability, T/C",[24],9.46%
same,"viability, T/C",[25],121%
same,"viability, T/C",[26],110%
same,"viability, T/C",[27],102%
same,"viability, T/C",[28],96.6%
same,"viability, T/C",[29],67.2%
same,"viability, T/C",[30],5.17%
same,"viability, T/C",[31],96.8%
same,"viability, T/C",[32],105%
same,"viability, T/C",[33],96.1%
same,"viability, T/C",[34],113%
same,"viability, T/C",[35],73.2%
same,"viability, T/C",[36],5.45%
CCc1cc2c(N3CCc4c(cc(Cn5ccnc5)cc4-c4cn(C)nc4C(F)(F)F)C3=O)ccnc2c(OC)n1 + Nc1ccc(C#CCN(C(=O)Cc2ncc(C(F)(F)F)cc2C(F)(F)F)c2ccc(F)cc2)nn1,IC50,second compound 0.0316 µM,> 10 µM
same,IC50,second compound 0.1 µM,4.78 µM
same,IC50,second compound 0.316 µM,7.55 µM
same,IC50,second compound 1 µM,8.72 µM
same,IC50,second compound 3.16 µM,> 10 µM
same,IC50,second compound 10 µM,5.44 µM
same,"viability, T/C",[1],89.5%
same,"viability, T/C",[2],124%
same,"viability, T/C",[3],110%
same,"viability, T/C",[4],70.7%
same,"viability, T/C",[5],63.5%
same,"viability, T/C",[6],38.4%
same,"viability, T/C",[7],88.5%
same,"viability, T/C",[8],111%
same,"viability, T/C",[9],101%
same,"viability, T/C",[10],87.6%
same,"viability, T/C",[11],54.9%
same,"viability, T/C",[12],41.8%
same,"viability, T/C",[13],120%
same,"viability, T/C",[14],103%
same,"viability, T/C",[15],87.1%
same,"viability, T/C",[16],88.9%
same,"viability, T/C",[17],86.1%
same,"viability, T/C",[18],38.1%
same,"viability, T/C",[19],127%
same,"viability, T/C",[20],109%
same,"viability, T/C",[21],100%
same,"viability, T/C",[22],79.1%
same,"viability, T/C",[23],63.9%
same,"viability, T/C",[24],48%
same,"viability, T/C",[25],95.7%
same,"viability, T/C",[26],108%
same,"viability, T/C",[27],113%
same,"viability, T/C",[28],79.8%
same,"viability, T/C",[29],64.3%
same,"viability, T/C",[30],50.9%
same,"viability, T/C",[31],102%
same,"viability, T/C",[32],83.9%
same,"viability, T/C",[33],83.7%
same,"viability, T/C",[34],90.5%
same,"viability, T/C",[35],62.6%
same,"viability, T/C",[36],35.9%
Cn1ncnc1[C@H]1c2n[nH]c(=O)c3cc(F)cc(c23)N[C@@H]1c1ccc(F)cc1 + Nc1ccc(C#CCN(C(=O)Cc2ncc(C(F)(F)F)cc2C(F)(F)F)c2ccc(F)cc2)nn1,IC50,second compound 0.0316 µM,> 0.1 µM
same,IC50,second compound 0.1 µM,> 0.1 µM
same,IC50,second compound 0.316 µM,> 0.1 µM
same,IC50,second compound 1 µM,> 0.1 µM
same,IC50,second compound 3.16 µM,> 0.1 µM
same,IC50,second compound 10 µM,> 0.1 µM
same,"viability, T/C","second compound 0.0316 µM, first compound 0.000316 µM",79.4%
same,"viability, T/C","second compound 0.0316 µM, first compound 0.001 µM",105%
same,"viability, T/C","second compound 0.0316 µM, first compound 0.00316 µM",86.2%
same,"viability, T/C","second compound 0.0316 µM, first compound 0.01 µM",93.1%
same,"viability, T/C",[1],99.6%
same,"viability, T/C",[2],79.8%
same,"viability, T/C","second compound 0.1 µM, first compound 0.000316 µM",92.4%
same,"viability, T/C","second compound 0.1 µM, first compound 0.001 µM",89.2%
same,"viability, T/C","second compound 0.1 µM, first compound 0.00316 µM",97.3%
same,"viability, T/C","second compound 0.1 µM, first compound 0.01 µM",100%
same,"viability, T/C",[7],95%
same,"viability, T/C",[8],88.7%
same,"viability, T/C","second compound 0.316 µM, first compound 0.000316 µM",113%
same,"viability, T/C","second compound 0.316 µM, first compound 0.001 µM",111%
same,"viability, T/C","second compound 0.316 µM, first compound 0.00316 µM",109%
same,"viability, T/C","second compound 0.316 µM, first compound 0.01 µM",97.4%
same,"viability, T/C",[13],75.2%
same,"viability, T/C",[14],72.8%
same,"viability, T/C","second compound 1 µM, first compound 0.000316 µM",112%
same,"viability, T/C","second compound 1 µM, first compound 0.001 µM",97.8%
same,"viability, T/C","second compound 1 µM, first compound 0.00316 µM",93.3%
same,"viability, T/C","second compound 1 µM, first compound 0.01 µM",95.2%
same,"viability, T/C",[19],85.8%
same,"viability, T/C",[20],68.1%
same,"viability, T/C","second compound 3.16 µM, first compound 0.000316 µM",108%
same,"viability, T/C","second compound 3.16 µM, first compound 0.001 µM",95.2%
same,"viability, T/C","second compound 3.16 µM, first compound 0.00316 µM",100%
same,"viability, T/C","second compound 3.16 µM, first compound 0.01 µM",98%
same,"viability, T/C",[25],99.7%
same,"viability, T/C",[26],93.7%
same,"viability, T/C","second compound 10 µM, first compound 0.000316 µM",115%
same,"viability, T/C","second compound 10 µM, first compound 0.001 µM",95.9%
same,"viability, T/C","second compound 10 µM, first compound 0.00316 µM",101%
same,"viability, T/C","second compound 10 µM, first compound 0.01 µM",94.1%
same,"viability, T/C",[31],97.9%
same,"viability, T/C",[32],87.2%
